Assay results reported in PubChem BioAssay AID434987 (Southern Research Specialized Biocontainment Screening …, 2010).
The source made the active and inactive calls. The rule behind the calls is not given here.

Tested on: M. tuberculosis H37Rv growth inhibition with meropenem
Test: dose response, H37Rv, with and without meropenem (AID 434987);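 note: growth over 7 days at 37 °C before Alamar Blue read on day 9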
[1] = M. tuberculosis H37Rv growth inhibition, measured here: IC50 without meropenem
[2] = M. tuberculosis H37Rv growth inhibition, measured here: IC90 without meropenem
[3] = measured here: IC90 with meropenem

SMILES | IC50 | IC50 [1] [µM] | IC90 [2] [µM] | IC90 [3] [µM]
Nc1nc(Sc2ncccc2[N+](=O)[O-])n[nH]1 | 21.6 µM (inactive) | 37.4 | > 50 | 77.1
O=C(/C=C/c1ccccn1)c1cc(Br)ccc1O | 21.8 µM (inactive) | 37.4 | 58.6 | 45.1
CCCCC12CN3CC(C)(CN(C1)C3c1ccc([N+](=O)[O-])o1)C2=O (centres undefined) | 4.12 µM | 27 | 98.7 | 23.5
CCCCCc1nnc(NC(=O)C2COc3ccccc3O2)s1 (centres undefined) | 62.5 µM (inactive) | > 100 | > 100 | > 100
N#Cc1c(SCC(=O)O)nc(N2CCCCC2)c2c1CCCC2 | 15.6 µM | 49.6 | > 100 | 27
Cc1sc2nc(C(C)Nc3ccccc3N3CCOCC3)[nH]c(=O)c2c1C (centres undefined) | > 100 µM (inactive) | > 100 | > 100 | > 100
CC1(c2ccc([N+](=O)[O-])cc2)NC(=O)N(CC(=O)c2ccc3c(c2)OCO3)C1=O (centres undefined) | > 100 µM (inactive) | > 100 | > 100 | > 100
CC(=O)n1cc([C@@H]2C=C(C(=O)N3CCN(Cc4ccc5c(c4)OCO5)CC3)O[C@H](OCCCCO)C2)c2ccccc21 | > 100 µM (inactive) | 84 | > 100 | > 100
Cc1ccc(C)c(S(=O)(=O)N2CCN(CC(=O)NC(C)c3ccccc3)CC2)c1 (centres undefined) | 98 µM (inactive) | 99.7 | > 100 | > 100
C=CCSc1nc2c(c(-c3ccsc3)c1C#N)CN(C)CC2 | 50.6 µM (inactive) | 65.7 | > 100 | 55.1
CC1(C)CN=C(Nc2nc3ccccc3s2)S1 | 29 µM | > 100 | > 100 | > 50
CC(C)C[C@H](NC(=O)c1nc[nH]c1C(=O)N1CCN(C(=O)OC(C)(C)C)CC1)C(=O)OCc1ccccc1 | 48.8 µM (inactive) | 49.4 | 56.1 | 54.9
CNC(=O)Nc1cccc(-c2cc(-c3c(Cl)cccc3Cl)no2)c1 | > 100 µM (inactive) | > 100 | > 100 | > 100
CCn1c2ccccc2c2cc(NC(=O)c3cccc(OC)c3OC)ccc21 | > 100 µM (inactive) | > 100 | > 100 | > 100
O=C(c1csc2c1CCCC2)n1cccn1 | 49.4 µM (inactive) | 97.3 | > 100 | > 100
CN(C)CCCN(C(=O)/C=C/c1cccs1)c1nc2ccc(F)cc2s1 | 45.2 µM (inactive) | 45.8 | 49.2 | 48.4
CC(/C=N/NC(=O)c1cc(C(C)(C)C)[nH]n1)=C\c1ccccc1 | > 100 µM (inactive) | > 100 | > 100 | > 100
COc1cc(CNc2ccc(NC(C)=O)cc2)ccc1OCc1ccccc1C | > 100 µM (inactive) | > 100 | > 100 | > 100
C=CCOc1ccc(C2N3CC4(C)CN2CC(CCC)(C3)C4=O)cc1 (centres undefined) | > 100 µM (inactive) | > 100 | > 100 | > 100
O=C(N[C@@H](Cc1ccccc1)C(=O)CCl)OCc1ccccc1 | 8.88 µM (inactive) | 17.3 | 41.9 | 46.9
COC(=O)c1cc(OC)c(OC)cc1NC(=O)c1ccc(OC)c(OC)c1 | 31.8 µM | > 100 | > 100 | > 100

SMILES | IC50 | IC50 [1] [µM] | IC90 [2] [µM] | IC90 [3] [µM]
C/C(=N\NC(=O)c1cc(Br)ccc1O)c1ccccn1 | 3.88 µM | 94.9 | > 100 | > 100
Cc1cc(NC(=O)c2ccc3c(c2)OCCO3)ccc1NC(=O)c1cc2ccccc2o1 | 76.3 µM (inactive) | > 100 | > 100 | > 100
COc1ccc(-c2sc3cc(OC)c(OC)cc3c2C#CCCO)cc1 | > 100 µM (inactive) | > 50 | > 50 | > 100
Cc1ccc(CC(=O)Nc2nc3ccccc3[nH]2)cc1C | 6.31 µM | > 100 | > 100 | > 25
Cc1ccc(C)c(SCC(=O)OCC(=O)N2CC(C)OC(C)C2)c1 (centres undefined) | 25.5 µM | > 100 | > 100 | > 100
Cc1ccc(NC(=O)/C=C\C(=O)O)c([N+](=O)[O-])c1 | 56.7 µM (inactive) | 95.7 | > 100 | > 100
O=C(O)CSc1ncnc2c1sc1nc(-c3ccccc3)c3c(c12)CCC3 | 12.2 µM | 61.9 | 87.4 | 14.2
CCO[C@H]1OC(C(=O)NCc2nc3ccccc3[nH]2)=C[C@@H](c2cn(C(C)=O)c3ccccc23)[C@@H]1CCCO | 90.7 µM (inactive) | 80 | > 100 | > 100
C=C(C)C1Cc2c(C)nn(-c3cccc4ccccc34)c2C1 (centres undefined) | 15.4 µM | 39.2 | 58.5 | 47.4
Cc1ncc(CCl)c2c1OC(C)(C)OC2 | 42.5 µM (inactive) | 89.2 | > 100 | > 100
C=CCSc1nnc(-c2cc3c(-c4ccccc4)nn(C)c3s2)n1C | 26 µM (inactive) | 52.4 | 92 | > 100
Cc1nn(-c2ccccc2)c(Cl)c1CN(C(=O)CCl)c1cccc2ccccc12 | 18.7 µM (inactive) | 33 | 53.4 | 48.2
O=C(Nc1cccc(C(F)(F)F)c1)N1CCC(c2nc(-c3ccc(F)cc3)no2)CC1 | > 100 µM (inactive) | > 100 | > 100 | > 100
O=C(CSC1CS(=O)(=O)c2cc([N+](=O)[O-])ccc21)NNC(=O)c1ccccc1 (centres undefined) | 11.8 µM | 89 | 94.3 | 13.3
C=CCc1cc(Cl)ccc1OCCCNC(C)CC (centres undefined) | 38.2 µM (inactive) | 49.2 | 55.1 | 51.3
O=C(N/N=C/c1ccc([N+](=O)[O-])o1)c1ccccc1-n1cccc1 | 4.74 µM | 13.9 | 35 | 29.4
Cc1cn([C@@H](CCCCNC(=O)OC(C)(C)C)C(=O)NCCCCCCCCCCC(=O)N2CCN(C(=O)OC(C)(C)C)CC2)nn1 | 97.7 µM (inactive) | > 100 | > 100 | > 100
CCOC(=O)c1c(NC(=O)C(=O)N/N=C/c2ccccc2OC)sc2c1CCCCC2 | > 100 µM (inactive) | > 100 | > 100 | > 100
Cc1ccc(C)c(NC(=O)C(Sc2nc3ccccc3c(=O)n2CC(C)C)c2ccccc2)c1 (centres undefined) | 58.8 µM (inactive) | > 100 | > 100 | > 100
CC1CCc2nc(NC(=O)C3COc4ccccc4O3)sc2C1 (centres undefined) | 26.2 µM (inactive) | 51.9 | > 100 | > 100
